Where a name gives a salt, the structure may show the parent alone. Read-outs that look alike come from different tables or passages of the source.
How the values were obtained:
Format in all cases: cell-based
[1] = Anti-proliferation IC50, MRC-5; conditions: human, MRC-5 cells; Table 1, compounds of formula I; NI = no inhibition up to 500 μM
[2] = system: A549; experiment: Anti-proliferation IC50, A549; conditions: Homo sapiens
[3] = system: Hep-G2; experiment: Anti-proliferation IC50, Hep-G2; conditions: Homo sapiens, HepG2
[4] = system: VERO; experiment: Anti-proliferation IC50, VERO; conditions: Chlorocebus sabaeus
[5] = system: MDA-MB-231; experiment: Anti-proliferation IC50, MDA-MB-231; conditions: Homo sapiens
[6] = system: MCF-7; experiment: Anti-proliferation IC50, MCF-7; conditions: Homo sapiens, MCF7
[7] = system: MRC-5; experiment: Anti-proliferation IC50, MRC-5; conditions: Homo sapiens, MRC5; Table 2, compounds of formula II
[8] = Table 1, compounds of formula I, NI = no inhibition up to 500 μM, read-out: A549 (IC50)
[9] = Table 1, compounds of formula I, NI = no inhibition up to 500 μM, read-out: Hep-G2 (IC50)
[10] = Table 1, compounds of formula I, NI = no inhibition up to 500 μM, read-out: VERO (IC50)
[11] = Table 1, compounds of formula I, NI = no inhibition up to 500 μM, read-out: MDA-MB-231 (IC50)
[12] = Table 1, compounds of formula I, NI = no inhibition up to 500 μM, read-out: MCF-7 (IC50)
[13] = Table 2, compounds of formula II, read-out: Anti-proliferation IC50 A549
[14] = Table 2, compounds of formula II, read-out: Anti-proliferation IC50 Hep-G2
[15] = Table 2, compounds of formula II, read-out: Anti-proliferation IC50 VERO
[16] = Table 2, compounds of formula II, read-out: Anti-proliferation IC50 MDA-MB-231
[17] = Table 2, compounds of formula II, read-out: Anti-proliferation IC50 MCF-7
[18] = Anti-proliferation IC50 for the new compounds, read-out: Hep-G2 (IC50 μM)
[19] = Anti-proliferation IC50 for the new compounds, read-out: VERO (IC50 μM)
[20] = Anti-proliferation IC50 for the new compounds, read-out: MDA-MB-231 (IC50 μM)
[21] = Anti-proliferation IC50 for the new compounds, read-out: MCF-7 (IC50 μM)

SMILES | IC50 [1] [µM] | IC50 [2, 8] [µM] | IC50 [3, 9] [µM] | IC50 [4, 10] [µM] | IC50 [5, 11] [µM] | IC50 [6, 12] [µM] | IC50 [7] [µM] | IC50 [2, 13] [µM] | IC50 [3, 14] [µM] | IC50 [4, 15] [µM] | other results
CC[C@H]1OC(=O)[C@@H](C)[C@@H](O[C@@H]2C[C@](C)(OC)[C@H](O)[C@@H](C)O2)[C@@H](C)[C@@H](O[C@H]2O[C@@H](C)C[C@@H](N(C)C)[C@@H]2OC(=O)CCCC[C@H]2CCSS2)[C@](C)(OC)C[C@@H](C)C(=O)[C@H](C)[C@H](O)[C@]1(C)O | 44.8 ± 7.1 | > 500 | > 500 | > 500 | 65 ± 0.9 | > 500 | – | – | – | – | –
CC[C@H]1OC(=O)[C@@H](C)[C@@H](O)[C@@H](C)[C@@H](O[C@H]2O[C@@H](C)C[C@@H](N(C)C)[C@@H]2OC(=O)CCCC[C@H]2CCSS2)[C@](C)(OC)C[C@@H](C)C(=O)[C@H](C)[C@H](O)[C@]1(C)O | 262.6 ± 0.4 | > 500 | 222 ± 5.3 | > 500 | 414.4 ± 1.7 | 477.3 ± 3.4 | – | – | – | – | –
CC[C@H]1OC(=O)[C@@H](C)[C@@H](O[C@H]2C[C@@](C)(OC)[C@@H](O)[C@H](C)O2)[C@@H](C)[C@@H](O[C@H]2O[C@@H](C)C[C@@H](N(C)Cc3ccc(-c4cn(CCNC(=O)CCCC[C@H]5CCSS5)nn4)cc3)[C@@H]2O)[C@](C)(OC)C[C@@H](C)C(=O)[C@H](C)[C@H](O)[C@]1(C)O | 56.1 ± 1.2 | 58.6 ± 0.6 | 57.3 ± 1.2 | 65 ± 12.2 | 56.9 ± 1.3 | 42.3 ± 4.4 | – | – | – | – | –
CC[C@H]1OC(=O)[C@@H](C)[C@@H](O[C@H]2C[C@@](C)(OC)[C@@H](O)[C@H](C)O2)[C@@H](C)[C@@H](O[C@H]2O[C@@H](C)C[C@@H](N(C)Cc3ccc(-c4cn(CCCNC(=O)CCCC[C@H]5CCSS5)nn4)cc3)[C@@H]2O)[C@](C)(OC)C[C@@H](C)C(=O)[C@H](C)[C@H](O)[C@]1(C)O | 51.6 ± 5 | 56.9 ± 0.8 | 49.2 ± 1.8 | 58.1 ± 2.7 | 58.5 ± 3.2 | 53.6 ± 0.2 | – | – | – | – | –
CC[C@H]1OC(=O)[C@@H](C)[C@@H](O[C@H]2C[C@@](C)(OC)[C@@H](O)[C@H](C)O2)[C@@H](C)[C@@H](O[C@H]2O[C@@H](C)C[C@@H](N(C)C)[C@@H]2OC(=O)/C=C/C(=O)OC)[C@](C)(OC)C[C@@H](C)C(=O)[C@H](C)[C@H](O)[C@]1(C)O | 88.4 | 278 | 133 | 219 ± 45.8 | 140 | 128 ± 16.5 | – | – | – | – | –
CCCCOC(=O)/C=C/C(=O)N(C)[C@@H]1C[C@H](C)O[C@H](O[C@@H]2[C@H](C)[C@H](O[C@H]3C[C@@](C)(OC)[C@@H](O)[C@H](C)O3)[C@H](C)C(=O)O[C@H](CC)[C@@](C)(O)[C@@H](O)[C@@H](C)C(=O)[C@H](C)C[C@@]2(C)OC)[C@H]1O | 44.9 ± 0.6 | > 500 | 209 ± 11.2 | 68.3 ± 16.8 | 28.4 ± 3.9 | 72.3 ± 5.2 | – | – | – | – | –
CC[C@@H]1OC(=O)[C@@H](C)[C@H](O[C@H]2C[C@@](C)(OC)[C@@H](O)[C@H](C)O2)[C@@H](C)[C@H](O[C@@H]2O[C@H](C)C[C@H](N(C)C)[C@H]2OC(=O)CCCC[C@H]2CCSS2)C(C)(O)C[C@H](C)CN(C)[C@@H](C)[C@H](O)[C@@]1(C)O (stereo partly shown) | – | – | – | – | – | – | 13.4 ± 0.4 | 23 ± 0.5 | 29.5 ± 4.4 | 54.5 ± 0.8 | IC50 [5, 16]: 45 ± 1.3 µM; IC50 [6, 17]: 38.2 ± 0.8 µM
CC[C@@H]1OC(=O)[C@@H](C)[C@H](O)[C@@H](C)[C@H](O[C@@H]2O[C@H](C)C[C@H](N(C)C)[C@H]2OC(=O)CCCC[C@H]2CCSS2)C(C)(O)C[C@H](C)CN(C)[C@@H](C)[C@H](O)[C@@]1(C)O (stereo partly shown) | – | – | – | – | – | – | 143 ± 17.1 | 282 ± 14.3 | 225 ± 12.8 | 273 ± 26.9 | IC50 [5, 16]: 400 ± 32.4 µM
CC[C@H]1OC(=O)[C@H](C)[C@@H](O[C@H]2C[C@@](C)(OC)[C@@H](O)[C@H](C)O2)[C@H](C)[C@@H](O[C@@H]2O[C@H](C)C[C@H](N(C)C(=O)CCCC[C@H]3CCSS3)[C@H]2O)[C@](C)(O)C[C@@H](C)CN(C)[C@H](C)[C@@H](O)[C@]1(C)O | – | – | – | – | – | – | 20.2 ± 3.7 | 18.8 ± 4.1 | 13.6 ± 0.1 | 24.4 ± 2.4 | IC50 [5, 16]: 11.9 ± 1.7 µM; IC50 [6, 17]: 11.2 µM
CC[C@@H]1OC(=O)[C@@H](C)[C@H](O[C@H]2C[C@@](C)(OC)[C@@H](O)[C@H](C)O2)[C@@H](C)[C@H](O[C@H]2O[C@@H](C)C[C@@H](N(C)Cc3ccc(-c4cn(CCNC(=O)CCCC[C@H]5CCSS5)nn4)cc3)[C@@H]2O)C(C)(O)C[C@H](C)CN(C)[C@@H](C)[C@H](O)[C@@]1(C)O (stereo partly shown) | – | – | – | – | – | – | 6.1 | 10.3 ± 0.9 | 8.5 ± 1.1 | 16.9 ± 0.4 | IC50 [5, 16]: 11.8 ± 0.1 µM; IC50 [6, 17]: 11.7 ± 0.4 µM
CC[C@@H]1OC(=O)[C@@H](C)[C@H](OC2C[C@@](C)(OC)[C@@H](O)[C@H](C)O2)[C@@H](C)[C@H](O[C@H]2O[C@@H](C)C[C@@H](N(C)Cc3ccc(-c4cn(CCCNC(=O)CCCC[C@H]5CCSS5)nn4)cc3)[C@@H]2O)C(C)(O)C[C@H](C)CN(C)[C@@H](C)[C@H](O)[C@@]1(C)O (stereo partly shown) | – | – | – | – | – | – | 24.5 ± 2.6 | 26.9 | 14.4 ± 0.6 | 40.3 ± 4.9 | IC50 [5, 16]: 21.3 ± 1.5 µM; IC50 [6, 17]: 26.8 ± 7.1 µM
CC[C@H]1OC(=O)[C@H](C)[C@@H](O[C@H]2C[C@@](C)(OC)[C@@H](O)[C@H](C)O2)[C@H](C)[C@@H](O[C@@H]2O[C@H](C)C[C@H](N(C)C)C2OC(=O)CCCCC(CCSCc2ccccc2)SCc2ccccc2)[C@](C)(O)C[C@@H](C)CN(C)[C@H](C)[C@@H](O)[C@]1(C)O (stereo partly shown) [AO-03-032] | – | – | – | – | – | – | – | – | – | – | IC50 ([2]; Anti-proliferation IC50 for the new compounds, read-out: A549 (IC50 μM)): 7.6 µM; IC50 [3, 18]: 4.2 µM; IC50 [4, 19]: 10.4 µM; IC50 [5, 20]: 6.4 µM
CC[C@H]1OC(=O)[C@H](C)[C@@H](O[C@H]2C[C@@](C)(OC)[C@@H](O)[C@H](C)O2)[C@H](C)[C@@H](O[C@@H]2O[C@H](C)C[C@H](N(C)C(=O)CCCCC(CCSCc3ccccc3)SCc3ccccc3)[C@H]2O)[C@](C)(O)C[C@@H](C)CN(C)[C@H](C)[C@@H](O)[C@]1(C)O (stereo partly shown) [AZM-613] | – | – | – | – | – | – | – | – | – | – | IC50 [3, 18]: 2.9 µM; IC50 [4, 19]: 6.5 µM; IC50 [5, 20]: 2.1 µM; IC50 [6, 21]: 2.8 µM
O=C(O)CCCCC(CCSCc1ccccc1)SCc1ccccc1 (stereo not shown) [CIP-613, reference compound] | – | – | – | – | – | – | – | – | – | – | IC50 [3, 18]: 232 µM; IC50 [4, 19]: 224 µM; IC50 [5, 20]: 236 µM; IC50 [6, 21]: 206 µM
CC[C@H]1OC(=O)[C@H](C)[C@@H](O[C@H]2C[C@@](C)(OC)[C@@H](O)[C@H](C)O2)[C@H](C)[C@@H](O[C@@H]2O[C@H](C)C[C@H](N(C)CCCCC#Cc3ccc(-n4cc(C)ccc4=O)cc3)[C@H]2O)[C@](C)(O)C[C@@H](C)CN(C)[C@H](C)[C@@H](O)[C@]1(C)O [Compound 20d] | – | – | – | – | – | – | 5.5 ± 0.2 | 15.5 ± 1.1 | 12.7 ± 1.3 | 16.2 ± 3.1 | –
CC[C@H]1OC(=O)[C@H](C)[C@@H](O[C@H]2C[C@@](C)(OC)[C@@H](O)[C@H](C)O2)[C@H](C)[C@@H](O[C@@H]2O[C@H](C)C[C@H](N(C)CCCCCC#Cc3ccc(-n4cc(C)ccc4=O)cc3)[C@H]2O)[C@](C)(O)C[C@@H](C)CN(C)[C@H](C)[C@@H](O)[C@]1(C)O [Compound 20e] | – | – | – | – | – | – | 2.2 ± 0.1 | 6.1 ± 0.3 | 2.8 | 4.7 ± 0.3 | –
COC(=O)/C=C/C(=O)OC [Dimethyl Fumarate, reference compound] | 259 | > 500 | > 500 | 844 | > 500 | > 500 | – | – | – | – | –
O=C(O)CCCCC1CCSS1 (stereo not shown) [Lipoic acid (ALA), Lipoic acid, reference compound] | > 500 | > 500 | > 500 | > 500 | > 500 | > 500 | – | – | – | – | –

Reference: patent US20240076293A1, “Compositions and Methods for Inhibiting Fibrosis, Inflammation and Cancer” (Georgia Tech Research Corporation, priority 2020, published 2024)
